Patent US10131663B2, “Chemical compounds” (AstraZeneca AB, priority 2016, dated 2018)
Converted amounts (≈) assume the structure as drawn.

Legend:
[1] = target: recombinant human Estrogen Receptor alpha ligand binding domain (ER alpha-LBD (GST)) (Homo sapiens (Human), UniProt P03372); assay: ERα binding assay (LanthaScreen TR-FRET competition); conditions: TR-FRET, displacement of Fluormone ES2
In short: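 Competition binding to GST-tagged human ERα ligand-binding domain, read by LanthaScreen TR-FRET: Tb-anti-GST antibody labels the receptor and compounds displace a fluorescent tracer, lowering the signal. IC50 was taken from dose-response curve fitting.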

[2] = Human Caco-2 bidirectional permeability A to B and B to A; type: in vitro ADME; conditions: for Papp at 2 h: Caco-2, 2 hours, pH 7.4
Experimental: An automated assay was used to determine the bidirectional permeability (efflux and uptake) of compounds in Caco-2 cells carried out over 2 hours at pH 7.4.
The efflux ratio (ER) can be determined using the following equation: ER=Papp(B-A)/Papp(A-B) Where Papp (B-A) indicates the apparent permeability coefficient in basolateral to apical direction, and Papp (A-B) indicates the apparent permeability coefficient in apical to basolateral direction. Human Caco-2 Passive Permeability A to B Papp

[3] = Human hepatocyte assay (metabolic stability); type: in vitro ADME; conditions: human hepatocytes
Experimental: The metabolic stability of compounds in human hepatocytes was assessed using the following protocol: • 1. Prepare 10 mM stock solutions of compound and control compounds in appropriate solvent (DMSO). Place incubation medium (L-15 Medium) in a 37° C. water bath, and allow warming for at least 15 minutes prior to use. • 2. Add 80 μL of acetonitrile to each well of the 96-well deep well plate (quenching plate). • 3. In a new 96-well plate, dilute the 10 mM test compounds and the control compounds to 100 μM by combining 198 μL of acetonitrile and 2 μL of 10 mM stock. • 4. Remove a vial of cryopreserved (less than −150° C.) human hepatocytes (LiverPool™ 10 Donor Human hepatocytes obtained from Celsis IVT. Chicago, Ill. (Product No. S01205)) from storage, ensuring that vials remain at cryogenic temperatures until thawing process ensues. As quickly as possible, thaw the cells by placing the vial in a 37° C. water bath and gently shaking the vials. Vials should remain in water bath until all ice crystals have dissolved and are no longer visible. After thawing is complete, spray vial with 70% ethanol, transfer the vial to a bio-safety cabinet. • 5. Open the vial and pour the contents into the 50 mL conical tube containing thawing medium. Place the 50 mL conical tube into a centrifuge and spin at 100 g for 10 minutes. […] Using Cellometer® Vision, count cells and determine the viable cell density. Cells with poor viability (<80% viability) are not acceptable for use. […] Transfer 247.5 μL of hepatocytes into each well of a 96-well cell culture plate. Place the plate on Eppendorf Thermomixer Comfort plate shaker to allow the hepatocytes to warm for 10 minutes. • 8. Add 2.5 μL of 100 μM test compound or control compounds into an incubation well containing cells, mix to achieve a homogenous suspension at 0.5 min, which when achieved, will define the 0.5 min time point. At the 0.5 min time, transfer 20 μL of incubated mixture to wells in a “Quenching plate” followed by vortexing. • 9. Incubate the plate at 37° C. at 900 rpm on an Eppendorf Thermomixer Comfort plate shaker. […] Centrifuge the quenching plates for 20 minutes at 4,000 rpm. 4 different compounds are pooled into one cassette and used for LC/MS/MS analysis.
All calculations were carried out using Microsoft Excel. Peak areas were determined from extracted ion chromatograms. In vitro intrinsic clearance (in vitro Clint, in […]) of parent compound was determined by regression analysis of the Ln percent parent disappearance vs. time curve.
V=incubation volume (0.25 mL);
N=number of hepatocytes per well (0.25×10^6 cells).

[4] = Thermodynamic solubility (shake-flask); type: physicochemical; conditions: aqueous phosphate buffer, 25 °C, pH 7.4, aqueous buffer, thermodynamic from solid, aqueous phosphate buffer pH 7.4, 24 hours
In short: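 Shake-flask method starting from 10 mM DMSO stocks, which are dried before use. Residue equilibrated 24 h at 25° C. in aqueous phosphate buffer, pH 7.4. Dissolved fraction separated and quantified by UPLC/MS/MS, with QC samples in each run.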

[5] = target: T1, Estrogen Receptor (ERα) in MCF-7 cells (Homo sapiens (Human), UniProt P03372); assay: MCF-7 ER down-regulation assay (immuno-fluorescence); type: cell-based
In short: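 Compounds dispensed acoustically from DMSO stocks onto MCF-7 cells; cells fixed 20 min at room temperature, then automated immunostaining for ERα with overnight incubation at 4° C. Read-out is mean total ER fluorescence intensity normalized to cell number (intensity per cell), with curve fitting for concentration-response values.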

[6] = log D (shake flask, 1-octanol/aqueous buffer); type: physicochemical
In short: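 Distribution between 1-octanol and aqueous buffer at pH 7.4 was measured by shake flask, with compounds run in mixtures of ten. Relative concentrations in each phase were quantified by UPLC with quantitative MS. Caffeine served as a low-log D QC sample in all runs.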

[7] = Human plasma protein binding (equilibrium dialysis); type: in vitro ADME; conditions: dialysis 18 hours
In short: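 Fraction unbound (fu %) in human plasma, from LC/MSMS of plasma and buffer sides (7-point plasma calibration) after 18 h rapid equilibrium dialysis. Single determinations, with compounds pooled up to 10 per plasma pool.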

[8] = Human Caco-2 passive permeability A to B Papp; type: in vitro ADME; conditions: apical pH 6.5, basolateral pH 7.4, efflux inhibitor cocktail
Experimental: An automated assay was used to determine the passive permeability of compounds in Caco-2 cell monolayers carried out over 2 hours with an apical pH of 6.5 and basolateral pH of 7.4. The Caco-2 AB inhibition assay is carried out with chemical inhibition of the three major efflux transporters ABCB1 (P-gp), ABCG2 (BCRP) and ABCC2 (MRP2) in Caco-2 cells. Incubation of both apical and basolateral is carried out with a cocktail of inhibitors (50 μM quinidine, 20 μM sulfasalazine and 100 μM benzbromarone). Samples were analyzed through LC/MS/MS to estimate the apparent permeability coefficients (Papp) of compounds across Caco-2 cell monolayers and results are quoted in units of ×10^−6 cm/s.

[9] = target: estrogen receptor (ERα) in CAMA-1 cells (Homo sapiens (Human), UniProt P03372); assay: Western blotting assay, ER down-regulation in CAMA-1; type: cell-based; conditions: 100 nM compound, 48 h, normalised to 100 nM fulvestrant
Experimental: (§1) Cells were incubated with compounds (100 nM) or vehicle control (0.1% DMSO) for 48 h at 37° C., 5% CO2 before washing once with PBS and lysing with 80 μl lysis buffer (25 mM Tris/HCl, 3 mM EDTA, 3 mM EGTA, 50 mM NaF, 2 mM sodium orthovanadate, 0.27 M sucrose, 10 mM β-glycerophosphate, 5 mM sodium pyrophosphate, 0.5% TritonX-100, pH 6.8) on ice.
(§2) Samples were boiled for 10 min at 95° C. and then frozen at −20° C. until ready for use.
(§3) The blot was stained with Ponceau S (P7170, Sigma) and cut according to appropriate molecular weight markers.
(§4) Membranes were blocked for 1 hour at room temp in 5% Marvel (w/v) in phosphate-buffered saline containing 0.05% Tween™ 20 (PBS/Tween). Blots were then incubated with anti-ERα (SP1) rabbit monoclonal antibody (Thermofisher) diluted 1:1000 at 4° C. overnight (with gentle shaking) followed by several washes with PBS/Tween. […] All antibodies were made up in 5% Marvel (w/v) in PBS/Tween.
(§5) Down-regulation of the ERα receptor was normalised to the vehicle control (0% down-regulation) and the 100 nM fulvestrant control (100% down-regulation) run within the same gel.

hERG potassium channel = hERG potassium channel (Homo sapiens (Human), UniProt Q12809); assay: hERG binding assay (automated patch clamp, CHO cells); type: cell-based; conditions: CHO cell line, Nanion Syncropatch 384PE
In short: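 CHO cells on automated patch clamp; compounds tested in quadruplicate. Currents evoked every 15 s from −80 mV holding by a 500 ms step to 60 mV then 500 ms to −40 mV.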

[10] = target: T1, Estrogen Receptor (ERα) in MCF-7 cells; assay: Western blotting assay, ER down-regulation in MCF-7; type: cell-based; conditions: 100 nM compound, 48 h, normalised to 100 nM fulvestrant
Experimental: as §1, §2, §3, §4, §5

ERα receptor = ERα receptor (Homo sapiens (Human), UniProt P03372); conditions: 500 mg monthly dose; cited from earlier work
[11] = 1-octanol/aqueous buffer, pH 7.4, pH 7.4, 1-octanol/aqueous buffer

T1 sequence (P03372 whole entry): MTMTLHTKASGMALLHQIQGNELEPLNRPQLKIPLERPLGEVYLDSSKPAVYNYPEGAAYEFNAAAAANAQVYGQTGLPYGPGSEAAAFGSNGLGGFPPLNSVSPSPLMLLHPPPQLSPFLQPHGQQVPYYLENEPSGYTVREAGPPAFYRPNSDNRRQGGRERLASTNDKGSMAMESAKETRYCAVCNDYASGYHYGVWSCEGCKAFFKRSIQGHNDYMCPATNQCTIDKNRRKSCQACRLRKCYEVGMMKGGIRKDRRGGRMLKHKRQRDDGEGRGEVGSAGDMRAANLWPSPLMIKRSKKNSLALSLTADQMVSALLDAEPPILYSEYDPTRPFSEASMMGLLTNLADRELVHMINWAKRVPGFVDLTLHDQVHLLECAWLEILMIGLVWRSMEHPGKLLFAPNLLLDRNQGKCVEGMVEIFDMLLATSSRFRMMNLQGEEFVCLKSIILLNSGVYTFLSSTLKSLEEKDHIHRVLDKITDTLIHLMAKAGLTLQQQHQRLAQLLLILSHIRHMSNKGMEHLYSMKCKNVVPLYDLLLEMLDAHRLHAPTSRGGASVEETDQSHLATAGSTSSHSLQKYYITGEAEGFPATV
Chain of estrogen receptor (ERα) in CAMA-1 cells (P03372 whole entry): as above
Chain of recombinant human Estrogen Receptor alpha ligand binding domain (ER alpha-LBD (GST)) (P03372 307-554): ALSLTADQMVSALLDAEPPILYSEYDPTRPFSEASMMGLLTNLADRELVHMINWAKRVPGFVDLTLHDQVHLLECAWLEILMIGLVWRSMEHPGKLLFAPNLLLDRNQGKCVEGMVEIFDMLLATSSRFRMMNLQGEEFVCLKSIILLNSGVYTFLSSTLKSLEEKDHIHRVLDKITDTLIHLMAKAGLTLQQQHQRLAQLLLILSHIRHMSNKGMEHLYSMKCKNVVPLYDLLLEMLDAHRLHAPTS
Chain of hERG potassium channel (Q12809 whole entry): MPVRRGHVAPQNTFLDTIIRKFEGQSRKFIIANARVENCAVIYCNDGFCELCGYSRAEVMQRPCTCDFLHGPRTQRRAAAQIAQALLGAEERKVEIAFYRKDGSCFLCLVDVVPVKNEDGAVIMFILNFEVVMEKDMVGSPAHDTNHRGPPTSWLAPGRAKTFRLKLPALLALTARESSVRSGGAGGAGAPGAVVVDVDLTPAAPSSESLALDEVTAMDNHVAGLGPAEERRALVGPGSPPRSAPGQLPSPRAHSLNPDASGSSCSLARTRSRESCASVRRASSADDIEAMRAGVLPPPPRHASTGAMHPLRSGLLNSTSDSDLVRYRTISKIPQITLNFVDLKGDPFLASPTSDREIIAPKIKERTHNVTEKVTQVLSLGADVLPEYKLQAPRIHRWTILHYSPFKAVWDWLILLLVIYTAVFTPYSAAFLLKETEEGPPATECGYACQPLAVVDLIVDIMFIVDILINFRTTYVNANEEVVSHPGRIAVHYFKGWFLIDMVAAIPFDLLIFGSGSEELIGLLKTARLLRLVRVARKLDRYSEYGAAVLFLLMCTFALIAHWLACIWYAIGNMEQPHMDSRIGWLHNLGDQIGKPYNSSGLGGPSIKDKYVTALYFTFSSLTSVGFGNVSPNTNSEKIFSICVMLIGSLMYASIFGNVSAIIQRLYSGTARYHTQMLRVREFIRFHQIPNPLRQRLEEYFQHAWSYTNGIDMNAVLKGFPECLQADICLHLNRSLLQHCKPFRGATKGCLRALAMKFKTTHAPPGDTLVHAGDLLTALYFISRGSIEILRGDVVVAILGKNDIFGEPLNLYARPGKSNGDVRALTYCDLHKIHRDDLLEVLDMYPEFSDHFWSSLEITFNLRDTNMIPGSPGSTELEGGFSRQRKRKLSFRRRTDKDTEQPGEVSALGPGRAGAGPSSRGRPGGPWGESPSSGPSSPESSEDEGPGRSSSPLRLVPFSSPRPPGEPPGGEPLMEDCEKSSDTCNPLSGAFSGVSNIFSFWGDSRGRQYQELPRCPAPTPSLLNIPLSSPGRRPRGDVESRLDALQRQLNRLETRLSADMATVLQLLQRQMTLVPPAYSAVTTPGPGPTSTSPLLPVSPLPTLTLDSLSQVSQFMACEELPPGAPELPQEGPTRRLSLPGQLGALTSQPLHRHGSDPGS
Chain of ERα receptor (P03372 whole entry): as the sequence (P03372 whole entry) above

With `C[C@@H]1Cc2c(ccc3[nH]ncc23)[C@@H](c2c(F)cc(NC3CN(CCCF)C3)cc2F)N1CC1(F)CC1` [Example 11, N-(3,5-difluoro-4-((6S,8R)-7-((1-fluorocyclopropyl)methyl)-8-methyl-6,7,8,9-tetrahydro-3H-pyrazolo[4,3-f]isoquinolin-6-yl)phenyl)-1-(3-fluoropropyl)azetidin-3-amine] the IC50 [1] was 20 nM, the Papp at 2 h [2] was 1.6 ×10⁻⁶ cm/s and the efflux ratio at 2 h ([2]; Caco-2, pH 7.4) was 1.4. The hepatocyte CLint at 1 µM [3] was 7 µL/min/1e6 cells, the solubility at 24 h [4] was 186 µM (≈ 93.3 µg/mL) and the IC50 [5] was 0.094 nM. The logD [6, 11] was 3.9 and the “Human plasma protein binding (% free)” value [7] was 2 % free.

`C[C@@H]1Cc2c(ccc3[nH]ncc23)[C@@H](c2ccc(NC3CN(CCCF)C3)c(F)n2)N1CC(F)(F)F` [Example 29, 2-fluoro-N-(1-(3-fluoropropyl)azetidin-3-yl)-6-((6S,8R)-8-methyl-7-(2,2,2-trifluoroethyl)-6,7,8,9-tetrahydro-3H-pyrazolo[4,3-f]isoquinolin-6-yl)pyridin-3-amine] showed a Papp at 2 h [2] of 12 ×10⁻⁶ cm/s, a solubility at 24 h [4] of 779 µM (≈ 385 µg/mL) and a logD ([6]; pH 7.4, 1-octanol/aqueous buffer) of 3. For the same molecule, the “Human plasma protein binding (% free)” value [7] was 16 % free and the Papp at 2 h [8] was 24 ×10⁻⁶ cm/s.

For `C[C@@H]1Cc2c(ccc3[nH]nc(F)c23)[C@@H](c2ccc(NC3CN(CCCF)C3)cn2)N1CC(F)(F)F` [Example 32], the “CAMA1 Western % ER deg vs Fv” value [9] was 89%, the IC50 (hERG potassium channel) was 14 µM and the Papp at 2 h [2] was 3.4 ×10⁻⁶ cm/s. For the same molecule, the solubility at 24 h [4] was 692 µM (≈ 342 µg/mL), the “MCF7 Western % ER deg vs Fv” value [10] was 89% and the logD [6, 11] was 3.5. For the same molecule, the “Human plasma protein binding (% free)” value [7] was 6.5 % free.

With `C[C@@H]1Cc2c(ccc3[nH]ncc23)[C@@H](c2ccc(NC3CN(CCCF)C3)nc2F)N1CC(F)(F)F` [Example 40, 6-fluoro-N-(1-(3-fluoropropyl)azetidin-3-yl)-5-((6S,8R)-8-methyl-7-(2,2,2-trifluoroethyl)-6,7,8,9-tetrahydro-3H-pyrazolo[4,3-f]isoquinolin-6-yl)pyridin-2-amine] the “CAMA1 Western % ER deg vs Fv” value [9] was 120%, the IC50 (hERG potassium channel) was 4.5 µM and the IC50 [1] was 1.3 nM. The solubility at 24 h [4] was 479 µM (≈ 237 µg/mL), the IC50 [5] was 0.1 nM and the “MCF7 Western % ER deg vs Fv” value [10] was 98%. For the same molecule, the logD [6, 11] was 3.5 and the “Human plasma protein binding (% free)” value [7] was 6.4 % free.

With `C[C@@H]1Cc2c(ccc3[nH]ncc23)[C@@H](c2ncc(NC3CN(CCCF)C3)cc2F)N1CC(F)F` [Example 46, 6-((6S,8R)-7-(2,2-difluoroethyl)-8-methyl-6,7,8,9-tetrahydro-3H-pyrazolo[4,3-f]isoquinolin-6-yl)-5-fluoro-N-(1-(3-fluoropropyl)azetidin-3-yl)pyridin-3-amine] the “CAMA1 Western % ER deg vs Fv” value [9] was 102%, the IC50 (hERG potassium channel) was > 40 µM and the IC50 [1] was 3.6 nM. For the same molecule, the solubility at 24 h [4] was > 1000 µM, the IC50 [5] was 0.4 nM and the “MCF7 Western % ER deg vs Fv” value [10] was 105%. The logD [6, 11] was 2.5 and the “Human plasma protein binding (% free)” value [7] was 31 % free.

For `C[C@@H]1Cc2c(ccc3[nH]ncc23)[C@@H](c2ncc(OC3CN(CCCF)C3)cc2F)N1CC(F)(F)CO` [Example 59, 2,2-difluoro-3-((6S,8R)-6-(3-fluoro-5-((1-(3-fluoropropyl)azetidin-3-yl)oxy)pyridin-2-yl)-8-methyl-3,6,8,9-tetrahydro-7H-pyrazolo[4,3-f]isoquinolin-7-yl)propan-1-ol], the “CAMA1 Western % ER deg vs Fv” value [9] was 102%, the IC50 (hERG potassium channel) was > 40 µM and the IC50 [1] was 7.2 nM. For the same molecule, the solubility at 24 h [4] was 971 µM (≈ 493 µg/mL), the IC50 [5] was 1.6 nM and the “MCF7 Western % ER deg vs Fv” value [10] was 104%. The logD [6, 11] was 2.4 and the “Human plasma protein binding (% free)” value [7] was 33 % free.

In the case of `CC(C)CN1[C@H](c2ccc(NC3CN(CCCF)C3)cn2)c2ccc3[nH]ncc3c2C[C@H]1C` [Example 69, N-(1-(3-fluoropropyl)azetidin-3-yl)-6-((6S,8R)-7-isobutyl-8-methyl-6,7,8,9-tetrahydro-3H-pyrazolo[4,3-f]isoquinolin-6-yl)pyridin-3-amine], the “CAMA1 Western % ER deg vs Fv” value [9] is reported as 98%, the IC50 (hERG potassium channel) is reported as 24 µM and the IC50 [1] is reported as 8.9 nM. The solubility at 24 h [4] was > 1000 µM, the IC50 [5] was 0.55 nM and the “MCF7 Western % ER deg vs Fv” value [10] was 95%. For the same molecule, the logD [6, 11] was 2.9 and the “Human plasma protein binding (% free)” value [7] was 37 % free.

In the case of `C[C@]12CC[C@@H]3c4ccc(O)cc4C[C@@H](CCCCCCCCC[S+]([O-])CCCC(F)(F)C(F)(F)F)[C@H]3[C@@H]1CC[C@@H]2O` (some centres unmarked) [Fulvestrant, fulvestrant], the “turnover of the receptor in patient samples” value (ERα receptor) is given as “less than 50%”.
